These results are taken from article PMC12679585, “Design, synthesis, and characterization of novel 5-ethylsulfonyl-indazole-3-carboxamides as dual VEGFR-2 and EGFR inhibitors: apoptotic antiproliferative and immunomodulatory evaluations” (RSC Advances, 2025).

Each structure is given as a SMILES string.

One data set deals with HCT-116. The data set can be described thus: Antiproliferative assay (MTT). The data set is classed as cell-based. Conditions: Homo sapiens, HCT-116 colorectal, mean of three experiments ± SD. An excerpt:
(§1) The MTT assay[53,54] was employed to evaluate the antiproliferative efficacy of new compounds 8a–l against two human cancer cell lines: MCF-7 (breast) and HCT-116 (colorectal carcinoma). Erlotinib was employed as the benchmark. Check Appendix A for additional experimental information.
(§2) The MTT assay[53,54] was used to evaluate the antiproliferative properties of novel compounds 8a–l against two human cancer cell lines: MCF-7 (breast cancer) and HCT-116 (colorectal carcinoma). Erlotinib was utilized as the reference. […] The provided values represent the means of three experiments ± standard deviation (SD). […]
(§3) of Ham's F-12 medium/ Dulbecco's modified Eagle's medium (DMEM) (1:1) supplemented with 10% foetal calf serum (GIBCO, UK), 2 mM glutamine, insulin (10 μg/mL), hydrocortisone (500 ng/mL) and epidermal growth factor (20 ng/mL). Trypsin ethylenediamine tetra acetic acid (EDTA) was used to passage the cells after every 2-3 days. 96-well flat-bottomed cell culture plates were used to seed the cells at a density of 10^4 cells mL-1. The medium was aspirated from all the wells of culture plates after 24 h followed by the addition of synthesized compounds (in 200 μL medium to yield a final concentration of 0.1% (v/v) dimethyl sulfoxide) into individual wells of the plates.
(§4) Four wells were designated to a single compound. The plates were allowed to incubate at 37°C for 96 h. Afterwards, the medium was aspirated and 3-[4,5-dimethylthiazol-2-yl]-2,5-diphenyltetrazolium bromide (MTT) (0.4 mg/mL) in medium was added to each well and subsequently incubated for 3 h. The medium was aspirated and 150 μL dimethyl sulfoxide (DMSO) was added to each well. The plates were vortexed followed by the measurement of absorbance at 540 nm on a microplate reader. […]
(§5) All cell lines […]
(§6) were obtained from ATCC (American Type Cell Culture). […]
(§7) μM), benzamidine HCl (16 μg/mL), NaCl (10 mM),leupeptin (10 μg/mL) and pepstatin (10 μg/mL) at 0°C for 20 min at pH 7.4, followed by centrifugation for 20 min. To eliminate the nonspecifically bound material, a Ni-NTA super flow packed column was (1 picture or pasted object on this page, not shown here)

The next data set concerns MCF-7. The data set can be described thus: Antiproliferative assay (MTT). The data set is classed as cell-based. Conditions: Homo sapiens, MCF7, MCF-7 breast, mean of three experiments ± SD.
Excerpt: as §1, §2, §3, §4, §5, §6, §7

A further data set deals with HCT-116 and MCF-7. The data set can be described thus: Antiproliferative assay, average over the two cell lines. It is filed as cell-based. Conditions: Homo sapiens; average of HCT-116 and MCF-7; read-out: Average IC50 (GI50).
Excerpt: as §1
The MTT assay[53,54] was used to evaluate the antiproliferative properties of novel compounds 8a–l against two human cancer cell lines: MCF-7 (breast cancer) and HCT-116 (colorectal carcinoma). Erlotinib was utilized as the reference. […] The provided values represent the means of three experiments ± standard deviation (SD).

Data set [1] in a line: Cell viability assay (MTT) on normal mammary epithelial cells. Conditions: human, MCF-10A normal mammary gland epithelial cells, four days. It is filed as cell-based. How it is done:
This test assesses the safety of new compounds 8a–l on normal cell lines. The efficacy of 8a–l was tested on the normal human mammary gland epithelial cell line MCF-10A. MCF-10A cells were incubated with 50 µM of each tested compound for four days. Cell viability was assessed using the MTT assay.[11,48] Appendix A has extra experimental details.
This assay evaluates the impact of novel compounds 8a–l on normal cell lines to determine their safety, an essential consideration in drug discovery. The efficacy of the examined compounds was evaluated utilizing the normal human mammary gland epithelial cell line MCF-10A. […]
4.2. Biological evaluation
4.2.1 Cell Viability assay (MTT assay)
as §3, with “MTT assay was performed to investigate the effect of the synthesized compounds on mammary epithelial cells (MCF-10A). The cells were propagated in medium consisting of Ham's” for “of Ham's”
as §4

The next data set concerns wild-type EGFR. Set-up: method as in PMID 26275028. Conditions: cited from earlier work.
For another data set, the target named is VEGFR-2 kinase. Also on record: method as in PMID 24456902. Conditions: cited from earlier work.
For a further data set, the system named is IL-6. The data set can be described thus: IL-6 level by qRT-PCR in HCT-116 cells. Conditions: HCT-116 cells, 24 hours, at IC50 against HCT-116 (8g 24 nM, 8h 23 nM), qRT-PCR. A general note: In qPCR the cycle at which signal appears reflects the starting amount.
The test system of the next data set is TNF-α. Put plainly: TNF-α level by qRT-PCR in HCT-116 cells. Conditions: HCT-116 cells, 24 hours, at IC50 against HCT-116 (8g 24 nM, 8h 23 nM), qRT-PCR.
In another data set the test system is Caspase-9. The data set can be described thus: Caspase-9 activation assay in HCT-116 cells.
In a further data set the test system is Caspase-3. The data set can be described thus: Caspase-3 activation assay in HCT-116 cells. The data set is classed as cell-based, human. Here is the method: Appendix A gives more details.
Additionally, activating caspases is essential for both initiating and terminating the apoptotic process.[64] Caspase-3 is an essential enzyme that cleaves several proteins within cells, leading to apoptotic cell death.[65] […]
be read immediately after the Stop Solution is added or within one hour if the microwell strips are stored at 2 - 8°C in the dark. Read the absorbance of each microwell on a spectrophotometer using 450 nm as the primary wavelength.
4.2.5. Caspase-3 activation assay
Allow all reagents to reach room temperature before use. Gently mix all liquid reagents prior to use. Determine the number of 8-well strips needed for the assay. Insert these in the frame(s) for current use. Add 100 μl of the Standard Diluent Buffer to the zero standard wells. Well(s) reserved for chromogen blank should be left empty. Add 100 μl of standards and controls or diluted samples to the appropriate microtiter wells. The sample dilution chosen should be optimized for each experimental system. Tap gently on side of plate to mix. Cover wells with plate cover and incubate for 2 hours at room temperature. Thoroughly aspirate or decant solution from wells and discard the liquid, Wash wells 4 times. Pipette 100 μl of Caspase-3 (Active) Detection Antibody solution into each well except the chromogen blank(s). Tap gently on the side of the plate to mix. Cover plate with plate cover and incubate for 1 hour at room temperature.
Thoroughly aspirate or decant solution from wells and discard the liquid, Wash wells 4 times. Add 100 μl Anti-Rabbit IgG HRP Working Solution to each well except the chromogen blank(s). Prepare the working dilution as described in Preparing IgG HRP.
Cover wells with the plate cover and incubate for 30 minutes at room temperature.
Thoroughly aspirate or decant solution from wells and discard the liquid. Wash wells 4 times. Add 100 μl of Stabilized Chromogen to each well. The liquid in the wells will […]
begin to turn blue. […] The
Tap side of plate gently to mix.
Use a curve fitting software to generate […]
for the dilution in step 3.
4.2.6. Caspase-8/9 activation assay
This lysate was diluted in […]

Description for IL-6: (§8) The reference molecule was dexamethasone, a drug that uniformly regulates the immune system.
TNF-α and IL6 a determination
(§9) determined using of q RT-PCR technique. By using q RTPCR (reference), the amount
(§10) treated HCT-116 cells was measured (at the IC50 concentrations). Total RNA was
(§11) accordance with the manufacturer's instructions (RNeasy mini kit, Qiagen, Germany).
(§12) Following RNA extraction, the Revert Aid First Strand cDNA Synthesis kit (Thermo
(§13) Scientific, USA) was used to create cDNA. The Rotor-Gene Q real-time PCR thermal
(§14) cycler was used to amplify target cDNA for apoptosis markers and GAPDH [as a
(§15) normalization (housekeeping) gene] using one step RT-PCR SYBR® Green kit Master
(§16) Mix (Bio-Rad Laboratories, USA). Two microliters of cDNA were combined with one
(§17) microliter of forward primer, one microliter of reverse primer, ten microliters of master
(§18) mixture, and twenty microliters of nuclease-free water to complete the reaction volume.
(§19) Every experiment was carried out three times.
(§20) Quantitative Real Time Reverse-Transcriptase PCR (qRT-PCR) primer sequences
TNF-α : R 5'- [sequence] -3'.
IL6 : R 5'- [sequence] -3
GAPDH : R 5’- [sequence]-3’
Description for TNF-α: as §8
TNF-α and IL6 a determination
as §9, §10, §11, §12, §13, §14, §15, §16, §17, §18, §19, §20
TNF-α : R 5'- [sequence] -3'.
IL6 : R 5'- [sequence] -3
GAPDH : R 5’- [sequence]-3’

The term IC50 denotes the concentration that inhibits the measured activity by half. What is called viability is a read-out of living cells in per cent, often relative to untreated cells. A lower viability goes with a greater loss of cells. Regarding `CCCCCNC(=O)NNC(=O)c1n[nH]c2ccc(S(=O)(=O)CC)cc12` [Compound 8a, 2-(5-(Ethylsulfonyl)-1H-indazole-3-carbonyl)-N-pentylhydrazine-1-carboxamide], the IC50 with HCT-116 was 42 ± 4 nM; in the data set with MCF-7, 54 ± 4 nM; in the data set with HCT-116 and MCF-7, 48 nM. Further, the viability at 4 days, 50 µM in data set [1] came out at 90%.

As to `CCCCCCNC(=O)NNC(=O)c1n[nH]c2ccc(S(=O)(=O)CC)cc12` [Compound 8b, 2-(5-(Ethylsulfonyl)-1H-indazole-3-carbonyl)-N-hexylhydrazine-1-carboxamide], the IC50 in the data set with HCT-116 is 33 ± 3 nM; in the data set on MCF-7, 40 ± 3 nM; with HCT-116 and MCF-7, 37 nM. Moreover, the viability at 4 days, 50 µM in [1] stood at 92%.

Take `CCCCCCCNC(=O)NNC(=O)c1n[nH]c2ccc(S(=O)(=O)CC)cc12` [Compound 8c, 2-(5-(Ethylsulfonyl)-1H-indazole-3-carbonyl)-N-heptylhydrazine-1-carboxamide]: the IC50 in the data set on HCT-116 turned out to be 30 ± 2 nM; in the data set on MCF-7, 34 ± 2 nM; with HCT-116 and MCF-7 it was 32 nM. The same molecule displayed a viability at 4 days, 50 µM in data set [1] of 91%.

As to `CCCCCCCCNC(=O)NNC(=O)c1n[nH]c2ccc(S(=O)(=O)CC)cc12` [Compound 8d, 2-(5-(Ethylsulfonyl)-1H-indazole-3-carbonyl)-N-octylhydrazine-1-carboxamide], the IC50 in the data set with HCT-116 came out at 28 ± 1 nM; with MCF-7, 31 ± 2 nM; in the data set with HCT-116 and MCF-7 it was 30 nM. Moreover, in [1], the viability at 4 days, 50 µM was determined as 90%.

Regarding `CCS(=O)(=O)c1ccc2[nH]nc(C(=O)NNC(=O)NC3CCCCC3)c2c1` [Compound 8e, 2-(5-(Ethylsulfonyl)-1H-indazole-3-carbonyl)-N-(cyclohexyl)hydrazine-1-carboxamide], the IC50 in the data set with HCT-116 amounted to 31 ± 3 nM; in the data set on MCF-7 it was 39 ± 3 nM; with HCT-116 and MCF-7, 35 nM. Besides, in data set [1], the viability at 4 days, 50 µM is 91%.

In the case of `CCS(=O)(=O)c1ccc2[nH]nc(C(=O)NNC(=O)NC3CCC(C)CC3)c2c1` (stereo not shown) [Compound 8f, 2-(5-(Ethylsulfonyl)-1H-indazole-3-carbonyl)-N-(4-methylcyclohexyl)hydrazine-1-carboxamide], the IC50 in the data set with HCT-116 turned out to be 39 ± 3 nM; in the data set with MCF-7, 50 ± 4 nM; in the data set on HCT-116 and MCF-7, 45 nM. In [1], this molecule showed a viability at 4 days, 50 µM of 92%.

Turning to `CCS(=O)(=O)c1ccc2[nH]nc(C(=O)NNC(=O)Nc3ccc(F)cc3)c2c1` [Compound 8i, 2-(5-(Ethylsulfonyl)-1H-indazole-3-carbonyl)-N-(4-fluorophenyl)hydrazine-1-carboxamide], the IC50 came to 36 ± 3 nM in the data set on HCT-116; 44 ± 4 nM in the data set with MCF-7; 40 nM with HCT-116 and MCF-7. In data set [1], this molecule came in with a viability at 4 days, 50 µM of 91%.

Consider `CCS(=O)(=O)c1ccc2[nH]nc(C(=O)NNC(=O)NCc3ccccc3)c2c1` [Compound 8j, 2-(5-(Ethylsulfonyl)-1H-indazole-3-carbonyl)-N-(benzyl)hydrazine-1-carboxamide], for which the IC50 in the data set with HCT-116 amounted to 31 ± 2 nM; in the data set with MCF-7 it was 36 ± 2 nM; with HCT-116 and MCF-7, 34 nM. For the same molecule, in data set [1], the viability at 4 days, 50 µM is 90%.

`CCS(=O)(=O)c1ccc2[nH]nc(C(=O)NNC(=O)NCc3ccc(OC)cc3)c2c1` [Compound 8k, 2-(5-(Ethylsulfonyl)-1H-indazole-3-carbonyl)-N-(4-methoxybenzyl)hydrazine-1-carboxamide]: the IC50 in the data set on HCT-116 is 30 ± 2 nM; with MCF-7, 32 ± 2 nM; with HCT-116 and MCF-7, 31 nM. In [1], this molecule returned a viability at 4 days, 50 µM of 92%.

As for `CCS(=O)(=O)c1ccc2[nH]nc(C(=O)NNC(=O)NCCc3ccccc3)c2c1` [Compound 8l, 2-(5-(Ethylsulfonyl)-1H-indazole-3-carbonyl)-N-phenethylhydrazine-1-carboxamide], the IC50 in the data set on HCT-116 is 37 ± 3 nM; in the data set on MCF-7 it was 46 ± 4 nM; in the data set on HCT-116 and MCF-7, 42 nM. Moreover, the viability at 4 days, 50 µM in data set [1] came to 91%.

On to `C=CC(=O)Nc1cccc(Oc2nc(Nc3n[nH]c4ccccc34)cc(N3CCN(C)CC3)n2)c1` [Compound XII], for which the IC50 in the data set with wild-type EGFR was 1700 nM.

As for `CN(c1ccc2cn(C)nc2c1)c1ccnc(Nc2ccc(OC(F)(F)F)cc2)n1` [Compound XIV], at VEGFR-2 kinase, the IC50 is 12 nM.

As to `C[C@@H]1C[C@H]2[C@@H]3CCC4=CC(=O)C=C[C@]4(C)[C@@]3(F)[C@@H](O)C[C@]2(C)[C@@]1(O)C(=O)CO` [Dexamethasone, reference compound], the “IL-6 (% inhibition)” value with IL-6 was found to be 93%; in the data set with IL-6 (listed as dexamethasone) it was 93.2%. Also, the results for the “TNF-α (% inhibition)” value in the data set on TNF-α and in the data set with TNF-α (listed as dexamethasone) were 83% and 82.7%, respectively.

Regarding `C#Cc1cccc(Nc2ncnc3cc(OCCOC)c(OCCOC)cc23)c1` [Erlotinib, reference compound], the IC50 with HCT-116 is 30 ± 2 nM; with MCF-7 it was 40 ± 3 nM; with HCT-116 and MCF-7 it was 35 nM.

For the molecule `CN[C@@H]1C[C@H]2O[C@@](C)([C@@H]1OC)n1c3ccccc3c3c4c(c5c6ccccc6n2c5c31)C(=O)NC4` [Staurosporine, reference compound], in the data set on Caspase-9, the “Caspase-9 Conc.” value amounted to 20 ± 1 ng/mL. Also, the “Caspase-3 Conc.” value in the data set on Caspase-3 stood at 465 ± 4 pg/mL.

In the case of `Cc1ccc(Nc2nccc(N(C)c3ccc4c(C)n(C)nc4c3)n2)cc1S(N)(=O)=O` [pazopanib], the IC50 at VEGFR-2 kinase was […].
